Experiments:
[1] = tested on: platelet aggregation (ADP); assay: Platelet aggregation inhibitory activity, ADP-induced (Born's turbidimetry, rabbit PRP); type: cell-based, male rabbit (NZW); settings: Oryctolagus cuniculus, ADP 7.5 μM final, 37° C.
Method: (§1) Pharmacological Experiment 1 Platelet aggregation inhibitory activity
(§2) (1) Preparation of platelet rich plasma (PRP):
(§3) The blood was collected from the carotid of a male rabbit without anesthesia (NZW species, body weight; 2-3 kg) with mixing thereof with 1/10 volume of citric acid. The blood thus obtained was separated and put into plastic test tubes (each about 7 ml), and centrifuged at 900 rpm for 15 minutes at room temperature to give a turbid supernatant as a platelet rich plasma (PRP). The residue from which PRP is separated was centrifuged at 3000 rpm for 10 minutes, and the supernatant was collected as a platelet poor plasma (PPP). The PRP was diluted with PPP so that the concentration thereof was adjusted to […], and used in the platelet aggregation inhibitory activity test.
(§4) (2) Method for platelet aggregation inhibitory activity test:
(§5) The platelet aggregation was tested according to Born's turbidimetry. That is, a test compound was dissolved in dimethylformamide, and the test compound solution (1 μl) thus obtained was put into a cuvette, and thereto was further added PRP (200 μl). Immediately thereafter, the cuvette was set into an apparatus for determining platelet aggregation activity, PAM-8T (manufactured by Mevanix Inc.), and the mixture was incubated at 37° C. Precisely three minutes thereafter, a solution of adenosine diphosphate (ADP, PA test ADP [MCM], purchased by MC Medical Ltd.) in physiological saline solution or a collagen solution (Collagenreagent Horm, purchased by MC Medical Ltd.) (20 μl) was added thereto. The final concentration of the ADP solution or the collagen solution was 7.5 μM or 20 μg/ml, respectively.
(§6) The maximum aggregation rate and the aggregation inhibitory rate were calculated by the following equations. [formula]
(§7) IC50, which is a concentration of the test compound being required to inhibit the platelet aggregation reaction by 50%, was determined from the aggregation inhibitory rates at two different concentrations of a test compound.

[2] = tested on: platelet aggregation (collagen); assay: Platelet aggregation inhibitory activity, collagen-induced (Born's turbidimetry, rabbit PRP); type: cell-based, male rabbit (NZW); settings: Oryctolagus cuniculus, collagen 20 μg/ml final, 37° C.
Method: as §1, §2, §3, §4, §5, §6, §7

[3] = tested on: death induced by pulmonary infarction in mice; assay: Antithrombotic activity: inhibition of death by collagen-induced pulmonary infarction in mice; type: in vivo, male ICR mice; settings: Mus musculus, 1 h; 30 mg/kg oral, 10 minutes before i.v. collagen; lethality in an hour; read-out: Pulmonary infarction inhibitory activity
Description: Pharmacological Experiment 2 Antithrombotic activity
Antithrombotic activity of the test compounds was estimated by an inhibitory activity of the test compound by oral administration against death induced by pulmonary infarction in mice which was introduced by intravenous administration of collagen (pulmonary infarction inhibitory activity).
Male ICR mice (5-week old, body weight; about 25 g) was fasted overnight, and separated into groups (15 mice per each group) and numbered. A test compound solution, which was prepared by suspending a test compound in 1% hydroxypropylmethyl cellulose 2910 TC-5 (HPMC, manufactured by Shin-etsu Chemical Co., Ltd.), was orally administered to the mice, and 10 minutes thereafter, a collagen solution (the method for preparation thereof and a dose thereof are explained hereafter) was injected to the mice at the tail vein at the constant rate. The lethality of the mice was determined by the number of mice which were died in an hour after the administration of collagen solution. The antithrombotic activity of the test compound was estimated by the inhibitory rate (%) of the lethality of the mice. The collagen solution was prepared by dissolving collagen (Type III, manufactured by Sigma Chemical Ltd.) in 0.05 M acetic acid solution containing 2 mM calcium chloride and 5% glucose at 4° C. so that the final concentration of collagen was adjusted to 2.5 mg/ml, and then the pH value thereof was adjusted to pH 7.4 with sodium hydroxide the day before the experiment. The collagen solution was incubated with stirring at 37° C. for two hours, and then further stirred at room temperature overnight. Just before the experiment, the pH value of the collagen solution was adjusted again to pH 7.4. The amount of the collagen solution which was injected at the tail vein was previously determined so that the lethality by pulmonary infarction induced thereby became about 75%.

[4] = tested on: left common carotid artery injured by balloon; assay: Intima thickening inhibitory activity after balloon injury (3H-thymidine in carotid artery); type: in vivo, male SD rats; settings: Rattus norvegicus, oral
Method: Pharmacological Experiment 3 Intima thickening inhibitory activity
Male SD rats (6-week old) were separated into groups (8 rats per each group) and numbered. A test compound solution, which was prepared by suspending a test compound in 1% hydroxypropylmethyl cellulose 2910 TC-5 (HPMC, manufactured by Shin-etsu Chemical Co., Ltd.) was orally administered to the rats. In the control group, 1% HPMC solution was orally administered instead of the test compound solution. One or two hours thereafter, two french balloon catheters (manufactured by Baxter Travenol Inc.) were inserted into the left common carotid artery of the rats, and the artery was injured by abrading five times with a balloon. The day of balloon abrasion was considered as Day 0. On the following day (Day 1), a test compound was orally administered to the rats two times a day (in the morning and in the evening). On Day 2, 1.48 MBq/ml of ^3 H-thymidine (dose: 5 ml/kg, manufactured by NEN Research Products, Ltd.) was injected at the tail vein of the rats about one hour after the administration of the test compound so that the time after the balloon injury was fixed to the same in each rat. Precisely 45 minutes after the injection of ^3 H-thymidine at the tail veil, the common carotid artery of the rats was taken out.
In the test compound-treated group, only the left common carotid artery which was injured by balloon was taken out, and in the control group, both the left and right common carotid arteries were taken out. The common carotid artery thus obtained was cut to pieces of exact 1 cm long, and the unnecessary portions such as the outer membrane or the nerves were completely removed. The common carotid artery was put into a glass vial, and thereto was added a 0.5 N sodium hydroxide (0.5 ml), and the mixture was incubated at 37° C. overnight to be solubilized. The mixture was neutralized with a 5 N hydrochloric acid (0.05 ml), and thereto was further added an aqueous hydrogen peroxide solution (0.1 ml). Aquasol II (10 ml, manufactured by Du Pont Co.) was added thereto, and the mixture was well stirred and then allowed to stand for 30 minutes. The radioactivity of tritium in the mixture was counted by liquid scintillation counter. The intima thickening inhibitory activity of the test compound was calculated by the following equation. [formula] L (c): The amount of tritium in the left common carotid artery in the control group (dpm)
R (c): The amount of tritium in the right common carotid artery in the control group (dpm)
L: The amount of tritium in the left common carotid artery in the test compound-treated group (dpm)

[5] = target: T1, cGMP-inhibited cAMP phosphodiesterase (PDE3) (Homo sapiens, UniProt Q14432); assay: cGMP-inhibited cAMP phosphodiesterase (PDE3) inhibitory activity; type: biochemical; settings: 0.4 μM [8-3H]cAMP, pH 8.0, 30° C., 15 minutes; recombinant enzyme from Sf9; read-out: PDE inhibitory activity IC50
T1 construct: made in house; host or cells: insect cell Sf9, baculovirus expression system
T1 sequence (Q14432 whole entry): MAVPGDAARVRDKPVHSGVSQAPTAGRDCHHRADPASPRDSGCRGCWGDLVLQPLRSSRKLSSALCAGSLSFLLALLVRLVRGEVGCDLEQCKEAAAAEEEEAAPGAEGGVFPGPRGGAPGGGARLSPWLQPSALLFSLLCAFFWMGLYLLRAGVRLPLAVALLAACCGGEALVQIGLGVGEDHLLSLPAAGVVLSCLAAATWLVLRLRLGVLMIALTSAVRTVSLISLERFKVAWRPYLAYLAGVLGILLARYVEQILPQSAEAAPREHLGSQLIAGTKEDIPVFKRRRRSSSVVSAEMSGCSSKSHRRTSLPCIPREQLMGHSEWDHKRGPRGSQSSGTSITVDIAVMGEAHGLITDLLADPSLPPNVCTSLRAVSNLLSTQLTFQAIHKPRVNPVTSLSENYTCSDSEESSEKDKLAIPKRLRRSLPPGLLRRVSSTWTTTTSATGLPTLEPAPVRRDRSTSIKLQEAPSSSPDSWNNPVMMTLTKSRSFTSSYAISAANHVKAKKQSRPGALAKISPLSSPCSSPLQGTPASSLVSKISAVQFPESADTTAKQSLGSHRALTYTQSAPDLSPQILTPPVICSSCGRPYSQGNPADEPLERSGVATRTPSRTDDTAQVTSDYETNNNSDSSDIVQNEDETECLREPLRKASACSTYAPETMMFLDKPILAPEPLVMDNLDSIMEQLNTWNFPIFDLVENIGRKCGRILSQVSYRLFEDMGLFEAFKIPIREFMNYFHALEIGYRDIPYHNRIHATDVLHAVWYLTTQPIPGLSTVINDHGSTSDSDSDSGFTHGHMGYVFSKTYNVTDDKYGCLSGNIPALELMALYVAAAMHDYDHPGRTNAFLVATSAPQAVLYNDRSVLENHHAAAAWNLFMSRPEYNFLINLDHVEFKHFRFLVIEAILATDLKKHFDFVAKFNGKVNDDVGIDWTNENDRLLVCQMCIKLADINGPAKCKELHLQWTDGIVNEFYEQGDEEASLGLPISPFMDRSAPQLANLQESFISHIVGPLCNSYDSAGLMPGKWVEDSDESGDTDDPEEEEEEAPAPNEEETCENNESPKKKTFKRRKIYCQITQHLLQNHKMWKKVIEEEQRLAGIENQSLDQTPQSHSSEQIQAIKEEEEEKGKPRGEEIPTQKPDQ

Row | SMILES | IC50 [1] [nM] | IC50 [2] [nM] | inhibition in vivo at 30 mg/kg [3] [%] | inhibition in vivo at 30 mg/kg [4] [%] | inhibition in vivo at 10 mg/kg [4] [%] | IC50 [5] [nM]
1 | CN(C(=O)N(CCCO)CCCOc1ccc2[nH]c(=O)ccc2c1)C1CCCCC1 [Ex. 22] | 1310 | 2800 | 69 | – | – | –
2 | O=C(NCCOc1ccc2[nH]c(=O)ccc2c1)N(C1CC1)[C@@H]1CCCC[C@H]1O (relative stereo) [Ex. 30] | 3670 | 2940 | 100 | – | – | –
3 | CCN(CCCOc1ccc2[nH]c(=O)ccc2c1)C(=O)N(C)C1CCCCC1 [Ex. 15] | 15200 | 16100 | 86 | 11.9 | – | –
4 | O=C(NCCCOc1ccc2[nH]c(=O)ccc2c1)N(C1CC1)[C@@H]1CCCC[C@H]1O (relative stereo) [Ex. 6, 6-{3-[3-(trans-2-hydroxycyclohexyl)-3-cyclopropylureido]propoxy}carbostyril] | 1800 | 1900 | 100 | – | 31.4 | –
5 | CCCN(CCCOc1ccc2[nH]c(=O)ccc2c1)C(=O)N(C)C1CCCCC1 [Ex. 23, 6-[3-(3-cyclohexyl-3-methyl-1-propylureido)propoxy]carbostyril] | 13400 | 2510 | 90 | – | – | –
6 | O=C(NCCCOc1ccc2[nH]c(=O)ccc2c1)N(C1CCCCCCC1)[C@@H]1CCCC[C@H]1O (relative stereo) [Ex. 24] | 80 | 30 | 100 | – | – | 0.647
7 | O=C(NCCCOc1cc(F)c2[nH]c(=O)ccc2c1)N(C1CC1)[C@@H]1CCCC[C@H]1O (relative stereo) [Ex. 26] | 450 | 3030 | 85 | 16 | – | 74.6
8 | O=C(NCCCOc1ccc2[nH]c(=O)ccc2c1)NN(C1CCCCC1)C1CC1 [Ex. 29] | 10 | 30 | 91 | 29.3 | – | –
9 | O=C(NCCCOc1ccc2[nH]c(=O)ccc2c1)N(C1CC1)[C@@H]1CCCC[C@H]1O [Ex. 9, (R,R)-(-)-6-{3-[3-(trans-2-hydroxycyclohexyl)-3-cyclopropylureido]propoxy}carbostyril] | 1900 | 2000 | 100 | – | 26.8 | 93
10 | O=C1CCc2cc(OCCCNC(=O)N(C3CC3)[C@@H]3CCCC[C@H]3O)cc(F)c2N1 (relative stereo) [Ex. 25] | 4650 | 3900 | 100 | – | – | –
11 | CCC(O)CN(C(=O)NCCCOc1ccc2[nH]c(=O)ccc2c1)C1CCCCC1 (stereo not drawn) [Ex. 10] | 400 | 300 | 74 | 34.2 | – | 24.3
12 | O=C(NCCCCOc1ccc2[nH]c(=O)ccc2c1)N(C1CC1)[C@@H]1CCCC[C@H]1O [Ex. 31] | 15700 | 2570 | 48 | – | – | –
13 | CCC(CN(C(=O)NCCCOc1ccc2[nH]c(=O)ccc2c1)C1CCCCC1)OC(C)=O (stereo not drawn) [Ex. 11] | 600 | 2100 | 80 | 33 | – | –
14 | CC(O)CN(CCCOc1ccc2[nH]c(=O)ccc2c1)C(=O)N(C)C1CCCCC1 (stereo not drawn) [Ex. 21] | 2080 | 3250 | 59 | – | – | –
15 | CC(=O)O[C@@H]1CCCC[C@H]1N(C(=O)NCCCOc1ccc2[nH]c(=O)ccc2c1)C1CC1 (relative stereo) [Ex. 7, 6-{3-[3-(trans-2-acetyloxycyclohexyl)-3-cyclopropylureide]propoxy}carbostyril] | 18200 | 2100 | 67 | 15.2 | – | –
16 | CCOC(CC)CN(C(=O)NCCCOc1ccc2[nH]c(=O)ccc2c1)C1CCCCC1 (stereo not drawn) [Ex. 19] | 180 | 590 | 84 | 23.4 | – | –
17 | C=CCN(CCCOc1ccc2[nH]c(=O)ccc2c1)C(=O)N(C)C1CCCCC1 [Ex. 16, 6-[3-(3-Cyclohexyl-3-methyl-1-allylureido)propoxy]carbostyril] | 4600 | 20000 | 77 | 33.3 | – | –
18 | O=C(NCCCOc1ccc2[nH]c(=O)ccc2c1)N(C1CCCCCC1)[C@@H]1CCCC[C@H]1O (relative stereo) [Ex. 18] | 120 | 30 | 69 | 19 | – | –
19 | CCC(O)CN(C(=O)N(C)CCCOc1ccc2[nH]c(=O)ccc2c1)C1CCCCC1 (stereo not drawn) [Ex. 13, 6-{3-[1-methyl-3-cyclohexyl-3-(2-hydroxybutyl)ureido]propoxy}carbostyril] | 2100 | 2000 | 58 | 16.6 | – | –
20 | CCC(CN(C(=O)NCCCOc1ccc2[nH]c(=O)ccc2c1)C1CCCCC1)OCc1ccccc1 (stereo not drawn) [Ex. 20] | 220 | 290 | 66 | – | – | –
21 | COc1cc(OCCCNC(=O)N(C2CC2)[C@@H]2CCCC[C@H]2O)cc2ccc(=O)[nH]c12 (relative stereo) [Ex. 27] | 31600 | 31600 | 80 | – | – | 2180
22 | CCC(CN(C(=O)N(C)CCCOc1ccc2[nH]c(=O)ccc2c1)C1CCCCC1)OC(C)=O (stereo not drawn) [Ex. 14, 6-{3-[1-methyl-3-cyclohexyl-3-(2-acetyloxybutyl)ureido]propoxy}carbostyril] | 1500 | 2200 | 66 | 15.7 | – | –

— patent publication US6143763A, “Carbostyril derivatives” (D. Western Therapeutics Institiute, priority 1995, dated 2000)
